Several values for one entry are separate records, joined by “and”; a condition that tells them apart may be missing. Identical values can stand only once.

What all share (assay type): in vivo
In test [1] the test system is larval ticks (I. scapularis). Briefly: Systemic efficacy of fipronil diet on larval ticks fed on laboratory mice. As to conditions: for Replete Ticks: individual mice; for Replete Ticks, Total: 8 mice. The protocol: To investigate the systemic efficacy of fipronil against ticks, diet compositions formulated with the compound were presented to treatment mice while an EPA challenge diet, without insecticide, was presented to control mice. Diet compositions were presented for 48 hours. Water was supplied ad libitum. Feed consumption was monitored throughout the study. After 48-hours, mice were removed from their cages and 50-70 I. scapularis were applied to each mouse by first placing mice in 50 ml centrifuge tubes will multiple holes in them. Holes were created by melting the centrifuge tube with a soldering iron. Ticks were then applied and mice remained restrained in the tubes for 2-5 hours, thereby allowing the ticks to attach. The mice were placed in cages suspended over water in a humidity chamber maintaining humidity between 60-80%. Water underneath the suspended mice was checked daily for the presence of ticks falling from the mice. The number of fed and unfed ticks was recorded. Water pans were checked for 6 days. The ticks were kept at 21° C., 90% humidity and a light cycle of 16L:8D. Pans were checked for 5 days. The end-point for the insecticides were larval tick mortality after exposure.
Study 1a: A Diet Composition Containing 970-ppm Fipronil Diet was Formulated Using Inert Ingredients of Rolled Oats, Corn Meal, Powdered Sugar and Corn Oil.
The diet was exposed to laboratory mice for 48 hours.
Study 2a: A Diet Composition Containing 485-ppm Fipronil Diet was Formulated and Exposed to Laboratory Mice for 48 Hours.
The diet was exposed to laboratory mice for 48 hours. Ticks were applied directly to the mice.

In test [2] the test system is larval ticks (I. scapularis). Described as above. Particulars: diet compositions containing 960-ppm fipronil (so in the source).
The next test deals with German cockroaches. Briefly: Cockroach mortality on rodent challenge diet fortified with imidacloprid. Particulars: EPA challenge diet fortified with 250 mg/kg imidacloprid. How it is done: To determine if rodent diet compositions containing imidacloprid would be effective at controlling cockroaches, German cockroaches were received from a commercial supplier and placed in a sealed container. Rodent “challenge diet”, the EPA standard rodent diet formulation, fortified with 250 mg/kg imidacloprid was placed in the cage. Water was supplied by a wet cotton wick. The mortality of cockroaches consuming diet was 100%.

In a further test the test system is X. cheopis fleas. Briefly: Flea mortality on rats fed imidacloprid or imidacloprid/piperonyl butoxide diet. The protocol: For example, an investigation was conducted into the ability of piperonyl butoxide to potentiate the insecticidal activity of orally administered imidacloprid to rats challenged with fleas. Piperonyl butoxide compound is known to produce significant decreases in hepatic cytochrome P450 in rats (Dalvi and Dalvi 1991). Because imidacloprid is also metabolized by cytochrome P450 in rats (Schulz-Jander et al. 2002), decreasing the metabolism rate of imidacloprid in the rat (i.e., the rate at which imidacloprid is metabolized by the rat) may increase the availability and therefore the toxicity of the compound to fleas as well as possibly increasing the residual action of the insecticide. Four rats were evaluated for each test diet. Rats were individually housed in individual cages. Rats were housed in cages measuring 24×40.5×18 cm (L×W×H). The floor area measured 972 cm^2. Tap water in glass bottles with stainless steel sipper tubes was available ad libitum. Cages were suspended from shelves on two, single-sided racks. Rats were placed in cages identified by a consecutive number 1-8 and a descriptor for their sex (e.g. M or F). PBO Technical (Prentox®) was received from Prentiss Inc. (Floral Park, N.Y., Lot# 41428). Diet composition was made using the following recipes:
The imidacloprid (Imi) diet composition was formulated at 167 mg/kg imidacloprid. The imidacloprid/PBO diet composition was formulated at 169 mg/kg imidacloprid and 1% PBO. Diets were mixed and presented no-choice to rats for 24 hours. Flea feeding capsules, containing fleas (X. cheopis) were secured to the rats and remained attached for 5 hrs. After exposure, the flea feeders were removed and placed in the humidity chamber until the following morning. Fleas were then evaluated for mortality and morbidity (Table 5).

For the compound `N#Cc1nn(-c2c(Cl)cc(C(F)(F)F)cc2Cl)c(N)c1[S+]([O-])C(F)(F)F` (stereo not shown) [Fipronil, fipronil], the “Replete Ticks” value in test [1] (485 ppm fipronil diet 48 hours, 70 ticks applied per mouse) is recorded as 0; in test [1] (970-ppm fipronil diet 48 hours, 50 ticks applied per mouse) it was 0. The “Replete Ticks, Total” value in test [1] (485 ppm fipronil diet, 70 ticks each, control total 162) came out at 0; in test [1] (970-ppm fipronil diet, 50 ticks each, control total 12), 0. For the same compound, the “prevents ticks from feeding to repletion” value in test [1] (fipronil formulated at 485 mg/kg in diet) is “prevents ticks from feeding to repletion”. Moreover, the “preventing ticks from feeding to repletion” value in test [2] was “effective at preventing ticks from feeding to repletion”.
On to `O=[N+]([O-])NC1=NCCN1Cc1ccc(Cl)nc1` [Imidacloprid, imidacloprid], for which the “mortality of cockroaches consuming diet” value in the test on German cockroaches amounted to 100%. Also, in the test on X. cheopis fleas (4 rats per diet, pooled), the Total fleas dead/recovered result is recorded as “(71/85)”. For the same compound, the “Total Percent Mortality (%)” value in the test on X. cheopis fleas (4 rats per diet, Imi 167 mg/kg, Imi/pip 169 mg/kg imidacloprid and 1% PBO) is listed as 83.5%. The “# Fleas Dead/# Fleas Recovered” value in the test on X. cheopis fleas (individual rats, diet 24 hours, flea capsules attached 5 hrs, Imi 167 mg/kg, Imi/pip 169 mg/kg imidacloprid and 1% PBO) was 20/24 and 18/18 and 15/15 and 18/28.

The record behind these values is patent publication US7943160B2, “Pest control methods” (priority 2002, dated 2011).
